In patent publication EP0486045A2, “S(+)-Phenyl-alkanoic acids and alpha-amino acid containing complexes” (MEDICE Chem.-Pharm. Fabrik Pütter GmbH & Co. KG, priority 1990, dated 1992):
Where “and” joins values, the source holds several entries; their conditions need not be identical. Identical values can stand only once. Like-named read-outs stand apart in the source and are kept apart here.

Key:
clinical = settings: human, in vivo, po, 150 mg
[1] = Pharmacokinetic comparison after a single oral dose of 150 mg S-(+)-Ibuprofen, free acid tablet vs D-Lysinat (Tabelle 5); settings: for Ae conj. I / Ae, free 1 / tlag: single oral dose 150 mg S-(+)-Ibuprofen, Mean ± SD
primärer Dysmenorrhör = test: Pharmacodynamics: pain intensity on a visual analogue scale (0 - 10), self-rated; format: in vivo, Probandinnen
From the text: In einer monozentrienden Studie wurde die Pharmakodynamik bei primärer Dysmenorrhör an 24 Probandinnen untersucht. Die Mittelwerte aller Probandinnen als Auswertung einer Schmerzintensitätsskala sind in Tabelle 4 sowie Fig. 4 graphisch dargestellt. Die Schmerzintensität wurde anhand der visuellen Analogskala (einer von 0 - 10 offenen Skala) von den Probandinnen im Rahmen einer Selbstbeurteilung angegeben.
Wie aus Fig. 4 zu ersehen, betrug die mittlere Schmerzintensität zum Zeitpunkt Null 4,7, die analgetische Wirksamkeit setzte innerhalb von 5 Minuten ein und verminderte sich innerhalb der ersten 45 Minuten auf einen Wert von im Mittel 1,65. Die maximale analgetische Wirkung wurde nach 2 Stunden mit einem Wert von 0,36 erreicht. Anschließend stieg die Schmerzintensität bis auf einen Wert von 0,83 nach 6 Stunden wieder langsam an. Die Fig. 4 zeigt die Schmerzintensitätskurve der Probandinnen.

[2] = Adverse drug effects, laboratory parameters and medical follow-up in the study; format: in vivo, Probandinnen; settings: up to 3 x daily 200 mg on 3 days
From the text: Unerwünschte Arzneimittelwirkungen traten bei keiner Teilnehmerin an der Studie auf.

[3] = human, in vivo, po, 150 mg
[4] = Pharmacokinetics of S-(+)-Ibuprofen-D-Lysinat capsules (200 mg S-(+)-Ibuprofen, oral) in 24 subjects

Q: Which pKa (physchem) does the source give for `NCCCC[C@H](N)C(=O)O` [Lysin] here?
A: 10.5

Q: For `N=C(N)NCCC[C@H](N)C(=O)O` [Arginin], which pKa (physchem) is on record?
A: ~12.5

Q: What does the source list for `CC(C)Cc1ccc([C@H](C)C(=O)O)cc1` [S-(+)-Ibuprofen, freie Säure, S-(+)-Ibuprofen]?
A: Cmax (clinical): 10.9 µg/mL; AUC ([1]; human, in vivo, po, 150 mg): 44.5 µg·h/mL; tmax ([1]; human, in vivo, po, 150 mg): 2 h; Ae conj. I [1]: 8,0 ± 2,9; Ae, free 1 [1]: 0,6 ± 0,2 % of dose; tlag [1]: 0,5 ± 0,1 h

Q: Which “mittlere Schmerzintensität” value (primärer Dysmenorrhör; Zeitpunkt Null (baseline), scale 0 - 10, mean of 24 subjects) does the source give for `CC(C)Cc1ccc([C@H](C)C(=O)O)cc1.NCCCC[C@@H](N)C(=O)O` [S-(+)-Ibuprofen-D-Lysinat] here?
A: 4,7

Q: What about the “mittlere Schmerzintensität” value (primärer Dysmenorrhör; nach 2 Stunden (maximal analgesic effect), scale 0 - 10) of the same compound?
A: 0,36

Q: And the “mittlere Schmerzintensität” value (primärer Dysmenorrhör; nach 6 Stunden, scale 0 - 10)?
A: 0,83

Q: What about the “Einsetzen der analgetischen Wirksamkeit” value (primärer Dysmenorrhör; onset of analgesia) of the same compound?
A: ≤ 5 Minuten

Q: What about the “mittlere Schmerzintensität” value (primärer Dysmenorrhör; within the first 45 Minuten, scale 0 - 10) of the same compound?
A: 1,65

Q: And the “unerwünschte Arzneimittelwirkungen” value ([2]; single or repeated intake)?
A: zu keinen unerwünschten Arzneimittelwirkungen geführt hat mit Ausnahme der bei einer Probandin aufgetretenen pseudoallergischen Reaktion

Q: And the “laborchemische Parameter und ärztliche Nachuntersuchung” value [2]?
A: ohne pathologischen Befund

Q: What about the Cmax [3] of the same compound?
A: 23,0 ± 5,2 µg/ml

Q: And the “AUC (Trapez)” value ([4]; group A (n 6), mean x̄, capsule single dose, 720 min)?
A: 69,55 mg/lx12h

Q: What about the tmax ([4]; mean of all subjects, 200 mg capsule oral) of the same compound?
A: 33 Minuten and 33,59 Minuten

Q: And the AUC ([4]; mean of all subjects, trapezoidal rule, 200 mg capsule oral, 720 min)?
A: 56,45 mg/1 x 12 h

Q: And the “Verzögerungszeit (lag-Time) der Resorption” value ([4]; mean, 200 mg capsule oral)?
A: 2,33 Minuten

Q: And the “Ae conj. I” value [1]?
A: 9,3 ± 5,4

Q: And the “Ae, free 1” value [1]?
A: 0,6 ± 0,5 % of dose

Q: And the tlag [1]?
A: 0,1 ± 0,02 h
